Assay results published in article PMC8079033, “Design, synthesis, anticancer evaluation, and molecular modelling studies of novel tolmetin derivatives as potential VEGFR-2 inhibitors and apoptosis inducers” (Journal of Enzyme Inhibition and Medicinal Chemistry, 2021).

Key:
Experiment in all cases: NCI 60-cell line one-dose antiproliferative screen (SRB)
Type in all cases: cell-based
HCT-15 = details: Homo sapiens, read-out: growth inhibition % (GI%)
Method in brief: (§1)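 Tumour cells pre-incubated 24 h, then dosed once at 10 µM (from DMSO stock diluted in medium with gentamicin). After 48 h, TCA fixation and SRB staining; absorbance 515 nm converted to growth inhibition percentage.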

SNB-19 = details: Homo sapiens, read-out: growth inhibition % (GI%)
Method in brief: as §1

EKVX = details: Homo sapiens, read-out: growth inhibition % (GI%)
Method in brief: as §1

IGROV1 = details: Homo sapiens, IGROV-1, read-out: growth inhibition % (GI%)
Method in brief: as §1

U251 = details: Homo sapiens, U-251, read-out: growth inhibition % (GI%)
Method in brief: as §1

NCI-H322M = details: Homo sapiens, read-out: growth inhibition % (GI%)
Method in brief: as §1

MDA-MB-435 = details: Homo sapiens, read-out: growth inhibition % (GI%)
Method in brief: as §1

SN 12 C = details: Homo sapiens, SN12C, read-out: growth inhibition % (GI%)
Method in brief: as §1

NCI-H460 = details: Homo sapiens, read-out: growth inhibition % (GI%)
Method in brief: as §1

OVCAR-8 = details: Homo sapiens, read-out: growth inhibition % (GI%)
Method in brief: as §1

HOP-62 = details: Homo sapiens, read-out: growth inhibition % (GI%)
Method in brief: as §1

CAKI-1 = details: Homo sapiens, read-out: growth inhibition % (GI%)
Method in brief: as §1

RPMI-8226 = details: Homo sapiens, read-out: growth inhibition % (GI%)
Method in brief: as §1

NCI-H522 = details: Homo sapiens, read-out: growth inhibition % (GI%)
Method in brief: as §1

UO-31 = details: Homo sapiens, read-out: growth inhibition % (GI%)
Method in brief: as §1

MDA-MB-468 = details: Homo sapiens, read-out: growth inhibition % (GI%)
Method in brief: as §1

SW-620 = details: Homo sapiens, read-out: growth inhibition % (GI%)
Method in brief: as §1

A498 = details: Homo sapiens, read-out: growth inhibition % (GI%)
Method in brief: as §1

OVCAR-5 = details: Homo sapiens, read-out: growth inhibition % (GI%)
Method in brief: as §1

M14 = details: Homo sapiens, read-out: growth inhibition % (GI%)
Method in brief: as §1

OVCAR-4 = details: Homo sapiens, read-out: growth inhibition % (GI%)
Method in brief: as §1

HL-60 (TB) = details: Homo sapiens, read-out: growth inhibition % (GI%)
Method in brief: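 Single dose 10 µM; 48 h exposure, 37 °C/5% CO2, after 24 h preincubation. TCA fix, SRB stain, A515. % growth vs untreated control and time-zero plates, reported as GI%.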

T-47D = details: Homo sapiens, T47D, read-out: growth inhibition % (GI%)
Method in brief: as §1

LOX IMVI = details: Homo sapiens, read-out: growth inhibition % (GI%)
Method in brief: as §1

SK-MEL-5 = details: Homo sapiens, read-out: growth inhibition % (GI%)
Method in brief: as §1

PC-3 = details: Homo sapiens, read-out: growth inhibition % (GI%)
Method in brief: as §1

RXF 393 = details: Homo sapiens, read-out: growth inhibition % (GI%)
Method in brief: as §1

NCI-H226 = details: Homo sapiens, read-out: growth inhibition % (GI%)
Method in brief: as §1

A549/ATCC = details: Homo sapiens, read-out: growth inhibition % (GI%)
Method in brief: as §1

MCF7 = details: Homo sapiens, read-out: growth inhibition % (GI%)
Method in brief: as §1

SF-295 = details: Homo sapiens, read-out: growth inhibition % (GI%)
Method in brief: as §1

SNB-75 = details: Homo sapiens, read-out: growth inhibition % (GI%)
Method in brief: as §1

MDA-MB-231/ATCC = details: Homo sapiens, read-out: growth inhibition % (GI%)
Method in brief: as §1

CCRF-CEM = details: Homo sapiens, read-out: growth inhibition % (GI%)
Method in brief: as §1

With `Cc1ccc(C(=O)c2ccc(CC(=O)NN=Cc3cccc(O)c3O)n2C)cc1` [Compound 5b, N′-(2,3-Dihydroxybenzylidene)-2–(1-methyl-5–(4-methylbenzoyl)-1H-pyrrol-2-yl) acetohydrazide] the inhibition at 10 µM (HCT-15) was 84.3%, the inhibition at 10 µM (SNB-19) was 54% and the inhibition at 10 µM (EKVX) was 41.2%. The inhibition at 10 µM (IGROV1) was 48.8%, the inhibition at 10 µM (U251) was 74% and the inhibition at 10 µM (NCI-H322M) was 45.6%. It also gave an inhibition at 10 µM (MDA-MB-435) of 38.9%, an inhibition at 10 µM (SN 12 C) of 53.2% and an inhibition at 10 µM (NCI-H460) of 91.4%. For the same compound, the inhibition at 10 µM (OVCAR-8) was 61.4%, the inhibition at 10 µM (HOP-62) was 50.1% and the inhibition at 10 µM (CAKI-1) was 62.7%. The inhibition at 10 µM (RPMI-8226) was 64.9%, the inhibition at 10 µM (NCI-H522) was 51.2% and the inhibition at 10 µM (UO-31) was 85.8%. It also gave an inhibition at 10 µM (MDA-MB-468) of 45.1%, an inhibition at 10 µM (SW-620) of 65.8% and an inhibition at 10 µM (A498) of less than 10%. The inhibition at 10 µM (OVCAR-5) was 27.4%, the inhibition at 10 µM (M14) was 71.5% and the inhibition at 10 µM (OVCAR-4) was 70.9%. It also gave an inhibition at 10 µM (HL-60 (TB)) of 95.9%, an inhibition at 10 µM (T-47D) of 74.1% and an inhibition at 10 µM (LOX IMVI) of 82.7%. It also gave an inhibition at 10 µM (SK-MEL-5) of 65.4%, an inhibition at 10 µM (PC-3) of 40.8% and an inhibition at 10 µM (RXF 393) of 70.3%. It also gave an inhibition at 10 µM (NCI-H226) of 31%, an inhibition at 10 µM (A549/ATCC) of 41.3% and an inhibition at 10 µM (MCF7) of 84%. The inhibition at 10 µM (SF-295) was 16.5%, the inhibition at 10 µM (SNB-75) was 74.6% and the inhibition at 10 µM (MDA-MB-231/ATCC) was 54.7%. The inhibition at 10 µM (CCRF-CEM) was 86.9%.
